Data on 1 molecule can be found in publication PMC11859031, “Assessment of the In Vitro Biological Activities of Schiff Base-Synthesized Copper Oxide Nanoparticles as an Anti-Diabetic, Anti-Alzheimer, and Anti-Cancer Agent” (Pharmaceutics, 2025).

Experiment [1] is described as follows: Total antioxidant capacity (TAC), phosphomolybdenum method. As to conditions: samples at 100 µg/mL; mean ± SE, n = 3. The protocol:
1. Preparation of SB-CuO-NPs
The copper oxide nanoparticles (CuO-NPs) were biosynthesized using a concentrated anhydrous copper sulfate solution (1 mM) as a metal precursor based […]
dissolved in 100 ml of deionized water to form a 0.1 M concentration. The Schiff base (SB) was mixed with the metal solution in a ratio of 4:1. The SB-CuO-NPs was monitored by a color change. They were dried at 80 °C after centrifuging the colloidal solution at 4000 rpm for 15 min.
2. Characterization of the SB-CuO-NPs
The spectra of the SB-CuO-NPs were characterized using a Shimadzu UV-VIS recording spectrophotometer UV-240 after diluting the samples (10-fold) with deionized water at λ 200 - 800 nm. Their surface zeta potentials were measured using the laser zeta meter (Malvern Zetasizer 2000, Malvern, Worcestershire, UK) following […]
Moreover, their average hydrodynamic sizes were determined using the laser diffraction method with multiple scattering techniques employing dynamic light scattering (DLS) (Malvern Zetasizer Nano ZS, Malvern Instruments Ltd., Malvern, United Kingdom) (Murdock et al., 2008). […]
All biological activities were assessed in the prepared samples at equal concentrations (100 µg/mL). […]
After cooling to room temperature, the absorbance was measured at 695 nm against the blank. […] The antioxidant capacity was expressed as mg gallic acid equivalent per gram weight. […]

Experiment [2] deals with bovine serum albumin (BSA) (Bos taurus, UniProt P02769). The experiment in a line: Inhibition of protein denaturation (anti-arthritic). As to conditions: read-out: Protein Denaturation Inhib. (%). The protocol: 3.5. Anti-arthritic activity
In the anti-arthritic activity study, this assay involved determining the percentage of […]
anti-inflammatory drug, as prepared according to Meera et al. The protein denaturation percentage was measured by mixing 0.5mL of the test control solution, prepared by combining 0.45 mL of bovine serum albumin (BSA) (5% w/v aqueous solution) with 0.05 mL of distilled water. Then, 0.05 mL of the test solution was added to 0.45 mL of distilled water to form the product control (0.5 mL). The […]
pH value in all prepared solutions was adjusted to 6.3 using HCl (1N). All the samples were incubated at 37 °C for 20 min, and the temperature was then increased to 57 °C, maintaining the samples at that degree for 3 min. After cooling, 2.5 mL of phosphate buffer was added to the prepared solutions. The absorbance was […]
protein denaturation inhibition can be calculated. Proteinase inhibitory activity was assessed by combining the test sample (1 mL) with a reaction mixture containing 0.06 mg trypsin dissolved in 1 mL of 20 mM Tris HCl buffer (pH 7.4). The mixture was then incubated for 5 minutes at 37°C, followed by the addition of 1 mL of casein (0.8% w/v). […] The cloudy suspension was then centrifuged, and the absorbance of the supernatant was measured at 210 nm against buffer as the blank. The percentage of proteinase inhibitory activity was then calculated. […]

Experiment [3] in a line: Iron reducing power (IRP). The following applies: samples at 100 µg/mL; mean ± SE, n = 3. The method, then:
ammonium molybdate. Methanol (80%) was used in place of the sample for the blank. The tubes were sealed and incubated in a boiling water bath for 90 minutes.
After cooling to room temperature, the absorbance was measured at 695 nm against the blank. […] was used at the same concentrations as a standard. The antioxidant capacity was expressed as mg gallic acid equivalent per gram weight.
The iron reducing power was determined as µg/mL using the method proposed by Oyaizu (1986). In brief, 1ml of the tested sample (at each concentration) was combined with 1mL of 200mM sodium phosphate buffer (pH 6.6) and 1mL of 1% potassium ferricyanide. […] The absorbance was measured at 700nm against a blank prepared without the sample. […] A high absorbance at 700nm indicates a higher reducing power in the reaction mixture.
The 1,1-Diphenyl-2-picryl-hydrazyl (DPPH) radical scavenging activities were evaluated using the method described by Rahman et al. An antioxidant substance capable of donating a hydrogen atom to a solution containing DPPH- can reduce the stable free radical, causing the solution to change color from violet to pale yellow.
The remaining DPPH- radical was quantified by measuring the intensity of a light-purple colored DPPH methanol solution in the visible range at 518 nm using a spectroscopic method. […]

Experiment [4] has as its system Bcl-2 in HepG-2 cells. The experiment in a line: Bcl-2 ELISA in treated HepG-2 cells. The class given is cell-based, human. As to conditions: HepG-2 cells treated at the IC50 value, mean ± SE, n = 3. The method, then: Following the treatment of HepG-2, Caco-2, A549, and BJ-1 cells with the SB-CuO-NPs at their respective IC50 values, as illustrated in Figure 9 and detailed in Table 5, an assessment of the activities of the caspase-3 and Bcl-2 enzymes was conducted in the treated cells. […] This mechanism ultimately triggers apoptosis. Additionally, the increased activity of caspase-3 results in a decrease in the expression of cyclin D1 and CDK-2 mRNA, thereby promoting the arrest of the G1 phase of the cell cycle. Othman et al. further noted that the biosynthesized M-NPs facilitate apoptosis by inhibiting the expression of the PI3K/AKT and Ras/Raf/ERK protein signaling pathways.
Invitrogen Corporation, following the manufacturer's instructions.
In general terms: An ELISA detects its analyte on a solid surface through an enzyme-linked reagent.

Chain of bovine serum albumin (BSA) (P02769 25-607): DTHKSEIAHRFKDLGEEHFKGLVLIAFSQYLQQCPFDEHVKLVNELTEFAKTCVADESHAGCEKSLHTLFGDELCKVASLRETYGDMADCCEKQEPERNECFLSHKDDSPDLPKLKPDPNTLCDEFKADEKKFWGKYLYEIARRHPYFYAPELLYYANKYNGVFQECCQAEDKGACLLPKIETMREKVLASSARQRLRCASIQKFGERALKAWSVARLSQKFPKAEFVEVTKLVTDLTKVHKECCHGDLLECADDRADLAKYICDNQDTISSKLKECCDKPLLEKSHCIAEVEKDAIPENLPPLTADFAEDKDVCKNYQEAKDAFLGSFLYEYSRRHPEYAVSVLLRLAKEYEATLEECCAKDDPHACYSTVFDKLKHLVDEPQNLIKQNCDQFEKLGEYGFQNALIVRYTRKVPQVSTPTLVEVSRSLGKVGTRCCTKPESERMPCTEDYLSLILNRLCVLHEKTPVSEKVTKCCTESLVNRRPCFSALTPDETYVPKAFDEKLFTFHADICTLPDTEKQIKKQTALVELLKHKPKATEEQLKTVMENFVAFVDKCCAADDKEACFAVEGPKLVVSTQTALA

With `Cc1nn(-c2ccccc2)c(Cl)c1C=NN=C1C(=O)Nc2ccccc21` [SB], the “Antioxidant activity TAC” value in experiment [1] came to 65.41 ± 0.19 mg gallic acid/g. Also, in experiment [2], the inhibition at 100 µg/mL came to 26.11 ± 0.13%. Also, the “Antioxidant activity IRP” value in experiment [3] stood at 47.66 ± 0.19 µg/mL. The same molecule registered a Bcl-2 in experiment [4] of 7.32 ± 0.10 ng/mL.
